Measured values from patent US10597388B2, “Pyridazinone herbicides” (FMC CORPORATION, priority 2014, dated 2020).

Tests used:
Assay in all cases: Test E greenhouse herbicide test, pre- and postemergence
Format in all cases: in vivo
[1] = tested on: velvetleaf (Abutilon theophrasti); conditions: Preemergence
In short: (§1)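 Scores (0–100, visual, vs controls) reflect greenhouse growth of 14 to 21 d after treatment. Application was pre-emergence to silt loam or post-emergence at the 1- to 4-leaf stage.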

[2] = tested on: nutsedge, yellow (yellow nutsedge, Cyperus esculentus); conditions: Preemergence
In short: as §1

[3] = tested on: sandbur (southem sandbur, Cenchrus echinatus)
In short: as §1

[4] = tested on: panicum, fall (fall panicum, Panicum dichotomiflorum)
In short: as §1

[5] = tested on: arrowleaf sida (Sida rhombifolia)
In short: as §1

[6] = tested on: goosegrass (Eleusine indica); conditions: Preemergence
In short: as §1

[7] = tested on: nightshade (eastern black nightshade, Solanum ptycanthum); conditions: Preemergence
In short: as §1

[8] = tested on: surinam grass (Brachiaria decumbens); conditions: Preemergence
In short: as §1

[9] = tested on: beggarticks (hairy beggarticks, Bidens pilosa)
In short: as §1

[10] = tested on: ragweed (common ragweed, Ambrosia elatior); conditions: Preemergence
In short: as §1

[11] = tested on: kochia (Kochia scoparia); conditions: Preemergence
In short: as §1

[12] = tested on: johnsongrass (Sorghum halepense); conditions: Preemergence
In short: as §1

[13] = tested on: crabgrass, large (large crabgrass, Digitaria sanguinalis); conditions: Preemergence
In short: as §1

[14] = tested on: momingglory (Ipomoea coccinea); conditions: Preemergence
In short: as §1

[15] = tested on: foxtail, giant (giant foxtail, Setaria faberii); conditions: Preemergence
In short: as §1

[16] = tested on: field bindweed (Convolvulus arvensis)
In short: as §1

[17] = tested on: barnyardgrass (Echinochloa crus-galli)
In short: as §1

[18] = 62 g ai/ha, scale 0 to 100 (0 no effect, 100 complete control)
[19] = 125 g ai/ha, scale 0 to 100 (0 no effect, 100 complete control)
[20] = 16 g ai/ha, scale 0 to 100, 0 no effect, 100 complete control
[21] = 31 g ai/ha, scale 0 to 100, 0 no effect, 100 complete control
[22] = 250 g ai/ha, visual, scale 0 no effect to 100 complete control
[23] = 62 g ai/ha, Postemergence, scale 0 to 100 (0 no effect, 100 complete control)
[24] = 62 g ai/ha, Preemergence, scale 0 to 100 (0 no effect, 100 complete control)
[25] = 125 g ai/ha, Postemergence, scale 0 to 100 (0 no effect, 100 complete control)
[26] = 125 g ai/ha, Preemergence, scale 0 to 100 (0 no effect, 100 complete control)
[27] = 250 g ai/ha, Postemergence, scale 0 to 100 (0 no effect, 100 complete control)
[28] = Postemergence, 16 g ai/ha, visual, scale 0 no effect to 100 complete control
[29] = Postemergence, 31 g ai/ha, visual, scale 0 no effect to 100 complete control
[30] = Preemergence, 16 g ai/ha, scale 0 to 100, 0 no effect, 100 complete control
[31] = Preemergence, 31 g ai/ha, scale 0 to 100, 0 no effect, 100 complete control
[32] = Preemergence, 250 g ai/ha, visual, scale 0 no effect to 100 complete control
[33] = Preemergence, 125 g ai/ha, visual, scale 0 no effect to 100 complete control
[34] = 125 g ai/ha, visual, scale 0 no effect to 100 complete control

Cc1cc(C)c2sc(C)c(-c3c(O)c(C)nn(C)c3=O)c2c1 [Compound 2, 5-hydroxy-2,6-dimethyl-4-(2,5,7-trimethylbenzo[b]thien-3-yl)-3(2H)-pyridazinone]
0: Plant response rating, Velvetleaf [1, 20] | Plant response rating, Nutsedge, Yellow [2, 20] | Plant response rating, Nutsedge, Yellow [2, 21] | Plant response rating, Sandbur [3, 30] | Plant response rating, Arrowleaf Sida [5, 24] | Plant response rating, Arrowleaf Sida [5, 28] | Plant response rating, Arrowleaf Sida [5, 30] | Plant response rating, Arrowleaf Sida [5, 31] | Plant response rating, Arrowleaf Sida [5, 33] | Plant response rating, Goosegrass [6, 20] | Plant response rating, Goosegrass [6, 21] | Plant response rating, Kochia [11, 18] | Plant response rating, Kochia [11, 20] | Plant response rating, Kochia [11, 21] | Plant response rating, Kochia [11, 34] | Plant response rating, Johnsongrass [12, 20] | Plant response rating, Crabgrass, Large [13, 18] | Plant response rating, Crabgrass, Large [13, 20] | Plant response rating, Crabgrass, Large [13, 21] | Plant response rating, Morningglory [14, 20] | Plant response rating, Field Bindweed [16, 30] | Plant response rating, Field Bindweed [16, 31] | Plant response rating, Barnyardgrass [17, 24] | Plant response rating, Barnyardgrass [17, 30] | Plant response rating, Barnyardgrass [17, 31]
20: Plant response rating, Sandbur [3, 25] | Plant response rating, Ragweed [10, 20] | Plant response rating, Johnsongrass [12, 18] | Plant response rating, Barnyardgrass [17, 28] | Plant response rating, Barnyardgrass [17, 29]
65: Plant response rating, Nutsedge, Yellow [2, 19] | Plant response rating, Field Bindweed [16, 23]
5: Plant response rating, Sandbur [3, 28] | Plant response rating, Arrowleaf Sida [5, 32] | Plant response rating, Goosegrass [6, 18] | Plant response rating, Surinam Grass [8, 20]
75: Plant response rating, Sandbur [3, 32] | Plant response rating, Panicum, Fall [4, 30] | Plant response rating, Nightshade [7, 21] | Plant response rating, Surinam Grass [8, 18] | Plant response rating, Ragweed [10, 18] | Plant response rating, Morningglory [14, 21] | Plant response rating, Foxtail, Giant [15, 21] | Plant response rating, Field Bindweed [16, 25]
100: Plant response rating, Panicum, Fall [4, 32] | Plant response rating, Nightshade [7, 22] | Plant response rating, Beggarticks [9, 23] | Plant response rating, Beggarticks [9, 24] | Plant response rating, Beggarticks [9, 25] | Plant response rating, Beggarticks [9, 27] | Plant response rating, Beggarticks [9, 31] | Plant response rating, Beggarticks [9, 33] | Plant response rating, Beggarticks [9, 32] | Plant response rating, Morningglory [14, 19] | Plant response rating, Morningglory [14, 22]
10: Plant response rating, Sandbur [3, 29]
30: Plant response rating, Velvetleaf [1, 21] | Plant response rating, Sandbur [3, 27] | Plant response rating, Arrowleaf Sida [5, 23] | Plant response rating, Crabgrass, Large [13, 34] | Plant response rating, Barnyardgrass [17, 25]
15: Plant response rating, Sandbur [3, 23] | Plant response rating, Sandbur [3, 24] | Plant response rating, Sandbur [3, 31] | Plant response rating, Field Bindweed [16, 24]
60: Plant response rating, Velvetleaf [1, 18] | Plant response rating, Panicum, Fall [4, 28] | Plant response rating, Crabgrass, Large [13, 22] | Plant response rating, Field Bindweed [16, 28] | Plant response rating, Field Bindweed [16, 29]
35: Plant response rating, Nutsedge, Yellow [2, 18] | Plant response rating, Arrowleaf Sida [5, 25] | Plant response rating, Nightshade [7, 20] | Plant response rating, Surinam Grass [8, 21] | Plant response rating, Ragweed [10, 21] | Plant response rating, Johnsongrass [12, 21] | Plant response rating, Johnsongrass [12, 34] | Plant response rating, Field Bindweed [16, 33] | Plant response rating, Barnyardgrass [17, 27]
95: Plant response rating, Panicum, Fall [4, 24] | Plant response rating, Surinam Grass [8, 22] | Plant response rating, Beggarticks [9, 29] | Plant response rating, Foxtail, Giant [15, 18]
40: Plant response rating, Arrowleaf Sida [5, 27] | Plant response rating, Kochia [11, 22] | Plant response rating, Foxtail, Giant [15, 20]
80: Plant response rating, Velvetleaf [1, 19] | Plant response rating, Field Bindweed [16, 27]
50: Plant response rating, Johnsongrass [12, 22]
90: Plant response rating, Velvetleaf [1, 22] | Plant response rating, Panicum, Fall [4, 27] | Plant response rating, Surinam Grass [8, 19] | Plant response rating, Beggarticks [9, 30] | Plant response rating, Morningglory [14, 18]
25: Plant response rating, Arrowleaf Sida [5, 29] | Plant response rating, Goosegrass [6, 34] | Plant response rating, Goosegrass [6, 22] | Plant response rating, Barnyardgrass [17, 23] | Plant response rating, Barnyardgrass [17, 33]
98: Plant response rating, Panicum, Fall [4, 26] | Plant response rating, Nightshade [7, 18] | Plant response rating, Nightshade [7, 19] | Plant response rating, Ragweed [10, 19] | Plant response rating, Ragweed [10, 22] | Plant response rating, Foxtail, Giant [15, 34] | Plant response rating, Foxtail, Giant [15, 22]
70: Plant response rating, Nutsedge, Yellow [2, 22] | Plant response rating, Sandbur [3, 26] | Plant response rating, Panicum, Fall [4, 23] | Plant response rating, Panicum, Fall [4, 29] | Plant response rating, Field Bindweed [16, 32] | Plant response rating, Barnyardgrass [17, 32]
85: Plant response rating, Panicum, Fall [4, 25] | Plant response rating, Panicum, Fall [4, 31] | Plant response rating, Beggarticks [9, 28]
